≈ marks a conversion by molar mass, not a printed value.
What was measured:
Experiment in all cases: MIC, standard broth micro-dilution assay
Format in all cases: cell-based
Entercoccus faecalis 276 = test system: Entercoccus faecalis 276
Procedure: (§1) The formula I compounds have in vitro and in vivo activity against Gram-positive pathogenic bacteria. The MIC's were determined using a standard broth micro-dilution assay.

[1] = test system: Entercoccus faecalis 2041
Procedure: as §1

[2] = test system: Entercoccus gallinarum 245
Procedure: as §1

SMILES | MIC (Entercoccus faecalis 276) [µg/mL] | MIC [1] [µg/mL] | MIC [2] [µg/mL]
CNC(CC(C)C)C(=O)NC1C(=O)NC(CC(N)=O)C(=O)NC2C(=O)NC3C(=O)NC(C(=O)NC(C(=O)O)c4cc(O)cc(O)c4-c4cc3ccc4O)C(OC3CC(C)(N)C(O)C(C)O3)c3ccc(c(Cl)c3)Oc3cc2cc(c3OC2OC(CO)C(O)C(O)C2OC2CC(C)(NCc3cc(C)cs3)C(O)C(C)O2)Oc2ccc(cc2Cl)C1O (stereo not shown) [Compound 66, 3-methyl-5-thienylmethyl] | ≤ 0.06 | ≤ 0.06 | 8 (≈ 4.7 µM)
CNC(CC(C)C)C(=O)NC1C(=O)NC(CC(N)=O)C(=O)NC2C(=O)NC3C(=O)NC(C(=O)NC(C(=O)O)c4cc(O)cc(O)c4-c4cc3ccc4O)C(OC3CC(C)(N)C(O)C(C)O3)c3ccc(c(Cl)c3)Oc3cc2cc(c3OC2OC(CO)C(O)C(O)C2OC2CC(C)(NCc3ccc(Cl)c(C(=O)c4ccccc4)c3Cl)C(O)C(C)O2)Oc2ccc(cc2Cl)C1O (stereo not shown) [Compound 133, 3-benzoyl-2,4-dichlorobenzyl] | 1 (≈ 0.539 µM) | – | 2 (≈ 1.08 µM)
CNC(CC(C)C)C(=O)NC1C(=O)NC(CC(N)=O)C(=O)NC2C(=O)NC3C(=O)NC(C(=O)NC(C(=O)O)c4cc(O)cc(O)c4-c4cc3ccc4O)C(O)c3ccc(c(Cl)c3)Oc3cc2cc(c3OC2OC(CO)C(O)C(O)C2OC2CC(C)(NCc3ccc(-c4ccccc4)cc3)C(O)C(C)O2)Oc2ccc(cc2Cl)C1O (stereo not shown) [Compound 181, 4-phenylbenzyl] | 2 (≈ 1.24 µM) | – | ≤ 0.06
CNC(CC(C)C)C(=O)NC1C(=O)NC(CC(N)=O)C(=O)NC2C(=O)NC3C(=O)NC(C(=O)NC(C(=O)O)c4cc(O)cc(O)c4-c4cc3ccc4O)C(OC3CC(C)(N)C(O)C(C)O3)c3ccc(c(Cl)c3)Oc3cc2cc(c3OC2OC(CO)C(O)C(O)C2OC2CC(C)(NCc3ccc(-c4ccccc4C)c(C)c3)C(O)C(C)O2)Oc2ccc(cc2Cl)C1O (stereo not shown) [Compound 237, 4-[2-methylphenyl]-3-methylbenzyl] | 1 (≈ 0.56 µM) | – | 1 (≈ 0.56 µM)
CNC(CC(C)C)C(=O)NC1C(=O)NC(CC(N)=O)C(=O)NC2C(=O)NC3C(=O)NC(C(=O)NC(C(=O)O)c4cc(O)cc(O)c4-c4cc3ccc4O)C(OC3CC(C)(N)C(O)C(C)O3)c3ccc(c(Cl)c3)Oc3cc2cc(c3OC2OC(CO)C(O)C(O)C2OC2CC(C)(NCc3ccc(OC(C)=O)cc3)C(O)C(C)O2)Oc2ccc(cc2Cl)C1O (stereo not shown) [Compound 138, 4-acetoxybenzyl] | ≤ 0.06 | ≤ 0.06 | –
CNC(CC(C)C)C(=O)NC1C(=O)NC(CC(N)=O)C(=O)NC2C(=O)NC3C(=O)NC(C(=O)NC(C(=O)O)c4cc(O)cc(O)c4-c4cc3ccc4O)C(OC3CC(C)(N)C(O)C(C)O3)c3ccc(c(Cl)c3)Oc3cc2cc(c3OC2OC(CO)C(O)C(O)C2OC2CC(C)(NCc3ccc(OCCOC(C)(C)C)cc3)C(O)C(C)O2)Oc2ccc(cc2Cl)C1O (stereo not shown) [Compound 154, 4-[2-t-butoxyethoxy]benzyl] | 0.5 (≈ 0.278 µM) | – | 4 (≈ 2.22 µM)
C=CCCCCCCCCNC1(C)CC(OC2C(Oc3c4cc5cc3Oc3ccc(cc3Cl)C(OC3CC(C)(N)C(O)C(C)O3)C3NC(=O)C(NC(=O)C5NC(=O)C(CC(N)=O)NC(=O)C(NC(=O)C(CC(C)C)NC)C(O)c5ccc(c(Cl)c5)O4)c4ccc(O)c(c4)-c4c(O)cc(O)cc4C(C(=O)O)NC3=O)OC(CO)C(O)C2O)OC(C)C1O (stereo not shown) [Compound 214, 9-decenyl] | 0.25 (≈ 0.144 µM) | – | 2 (≈ 1.16 µM)
CNC(CC(C)C)C(=O)NC1C(=O)NC(CC(N)=O)C(=O)NC2C(=O)NC3C(=O)NC(C(=O)NC(C(=O)O)c4cc(O)cc(O)c4-c4cc3ccc4O)C(OC3CC(C)(N)C(O)C(C)O3)c3ccc(c(Cl)c3)Oc3cc2cc(c3OC2OC(CO)C(O)C(O)C2OC2CC(C)(NCc3ccc(-c4ccc(OC)c(OC)c4)cc3)C(O)C(C)O2)Oc2ccc(cc2Cl)C1O (stereo not shown) [Compound 215, 4-[3,4-dimethoxyphenyl]benzyl] | 2 (≈ 1.1 µM) | – | –
CCCCCCCCC#CCCCCCCNC1(C)CC(OC2C(Oc3c4cc5cc3Oc3ccc(cc3Cl)C(OC3CC(C)(N)C(O)C(C)O3)C3NC(=O)C(NC(=O)C5NC(=O)C(CC(N)=O)NC(=O)C(NC(=O)C(CC(C)C)NC)C(O)c5ccc(c(Cl)c5)O4)c4ccc(O)c(c4)-c4c(O)cc(O)cc4C(C(=O)O)NC3=O)OC(CO)C(O)C2O)OC(C)C1O (stereo not shown) [Compound 207, 7-hexadecynyl] | 0.25 (≈ 0.138 µM) | – | 1 (≈ 0.552 µM)
CNC(CC(C)C)C(=O)NC1C(=O)NC(CC(N)=O)C(=O)NC2C(=O)NC3C(=O)NC(C(=O)NC(C(=O)O)c4cc(O)cc(O)c4-c4cc3ccc4O)C(OC3CC(C)(N)C(O)C(C)O3)c3ccc(c(Cl)c3)Oc3cc2cc(c3OC2OC(CO)C(O)C(O)C2OC2CC(C)(NCc3ccc(N4CCCCC4C)cc3)C(O)C(C)O2)Oc2ccc(cc2Cl)C1O (stereo not shown) [Compound 135, 4-[2-methyl-1-piperidino]benzyl] | 0.5 (≈ 0.281 µM) | – | 2 (≈ 1.12 µM)
CNC(CC(C)C)C(=O)NC1C(=O)NC(CC(N)=O)C(=O)NC2C(=O)NC3C(=O)NC(C(=O)NC(C(=O)O)c4cc(O)cc(O)c4-c4cc3ccc4O)C(OC3CC(C)(N)C(O)C(C)O3)c3ccc(c(Cl)c3)Oc3cc2cc(c3OC2OC(CO)C(O)C(O)C2OC2CC(C)(NCc3ccc4c(c3)CCO4)C(O)C(C)O2)Oc2ccc(cc2Cl)C1O (stereo not drawn) [Compound 82, S-[2,3-dihydrobenzfuryl]methyl] | ≤ 0.06 | 0.5 (≈ 0.29 µM) | –

Results, then the compound that gave them:

MIC (Entercoccus faecalis 276) [µg/mL] | MIC [1] [µg/mL] | MIC [2] [µg/mL] | SMILES
≤ 0.06 | ≤ 0.06 | ≤ 0.06 | CNC(CC(C)C)C(=O)NC1C(=O)NC(CC(N)=O)C(=O)NC2C(=O)NC3C(=O)NC(C(=O)NC(C(=O)O)c4cc(O)cc(O)c4-c4cc3ccc4O)C(OC3CC(C)(N)C(O)C(C)O3)c3ccc(c(Cl)c3)Oc3cc2cc(c3OC2OC(CO)C(O)C(O)C2OC2CC(C)(NCc3cc4ccccc4s3)C(O)C(C)O2)Oc2ccc(cc2Cl)C1O (stereo not shown) [Compound 19, 2-benzthienylmethyl]
2 (≈ 1.12 µM) | – | 2 (≈ 1.12 µM) | CNC(CC(C)C)C(=O)NC1C(=O)NC(CC(N)=O)C(=O)NC2C(=O)NC3C(=O)NC(C(=O)NC(C(=O)O)c4cc(O)cc(O)c4-c4cc3ccc4O)C(OC3CC(C)(N)C(O)C(C)O3)c3ccc(c(Cl)c3)Oc3cc2cc(c3OC2OC(CO)C(O)C(O)C2OC2CC(C)(NCCCCCCCCc3ccccc3)C(O)C(C)O2)Oc2ccc(cc2Cl)C1O (stereo not shown) [Compound 176, 8-phenyloctyl]
0.5 (≈ 0.288 µM) | – | 0.5 (≈ 0.288 µM) | CNC(CC(C)C)C(=O)NC1C(=O)NC(CC(N)=O)C(=O)NC2C(=O)NC3C(=O)NC(C(=O)NC(C(=O)O)c4cc(O)cc(O)c4-c4cc3ccc4O)C(OC3CC(C)(N)C(O)C(C)O3)c3ccc(c(Cl)c3)Oc3cc2cc(c3OC2OC(CO)C(O)C(O)C2OC2CC(C)(NCc3ccnc4ccccc34)C(O)C(C)O2)Oc2ccc(cc2Cl)C1O (stereo not shown) [Compound 27, 4-quinolylmethyl]
≤ 0.06 | ≤ 0.06 | – | CNC(CC(C)C)C(=O)NC1C(=O)NC(CC(N)=O)C(=O)NC2C(=O)NC3C(=O)NC(C(=O)NC(C(=O)O)c4cc(O)cc(O)c4-c4cc3ccc4O)C(OC3CC(C)(N)C(O)C(C)O3)c3ccc(c(Cl)c3)Oc3cc2cc(c3OC2OC(CO)C(O)C(O)C2OC2CC(C)(NCCc3ccc(Oc4ccccc4)cc3)C(O)C(C)O2)Oc2ccc(cc2Cl)C1O (stereo not shown) [Compound 33, 4-phenoxyphenethyl]
≤ 0.06 | – | ≤ 0.06 | CNC(CC(C)C)C(=O)NC1C(=O)NC(CC(N)=O)C(=O)NC2C(=O)NC3C(=O)NC(C(=O)NC(C(=O)O)c4cc(O)cc(O)c4-c4cc3ccc4O)C(OC3CC(C)(N)C(O)C(C)O3)c3ccc(c(Cl)c3)Oc3cc2cc(c3OC2OC(CO)C(O)C(O)C2OC2CC(C)(NCc3ccc(-c4cccs4)cc3)C(O)C(C)O2)Oc2ccc(cc2Cl)C1O (stereo not shown) [Compound 218, 4-[2-thienyl]benzyl]
0.5 (≈ 0.293 µM) | ≤ 0.06 | – | CNC(CC(C)C)C(=O)NC1C(=O)NC(CC(N)=O)C(=O)NC2C(=O)NC3C(=O)NC(C(=O)NC(C(=O)O)c4cc(O)cc(O)c4-c4cc3ccc4O)C(OC3CC(C)(N)C(O)C(C)O3)c3ccc(c(Cl)c3)Oc3cc2cc(c3OC2OC(CO)C(O)C(O)C2OC2CC(C)(NCC=Cc3ccccc3)C(O)C(C)O2)Oc2ccc(cc2Cl)C1O (stereo not drawn) [Compound 38, trans-cinnamyl]
2 (≈ 1.12 µM) | – | 2 (≈ 1.12 µM) | CCc1ccc(-c2ccc(CNC3(C)CC(OC4C(Oc5c6cc7cc5Oc5ccc(cc5Cl)C(OC5CC(C)(N)C(O)C(C)O5)C5NC(=O)C(NC(=O)C7NC(=O)C(CC(N)=O)NC(=O)C(NC(=O)C(CC(C)C)NC)C(O)c7ccc(c(Cl)c7)O6)c6ccc(O)c(c6)-c6c(O)cc(O)cc6C(C(=O)O)NC5=O)OC(CO)C(O)C4O)OC(C)C3O)cc2)cc1 (stereo not shown) [Compound 90, 4-[4-ethylphenyl]benzyl]
0.5 (≈ 0.28 µM) | – | 8 (≈ 4.47 µM) | CNC(CC(C)C)C(=O)NC1C(=O)NC(CC(N)=O)C(=O)NC2C(=O)NC3C(=O)NC(C(=O)NC(C(=O)O)c4cc(O)cc(O)c4-c4cc3ccc4O)C(OC3CC(C)(N)C(O)C(C)O3)c3ccc(c(Cl)c3)Oc3cc2cc(c3OC2OC(CO)C(O)C(O)C2OC2CC(C)(NCCc3ccc(Oc4ccccc4)cc3)C(O)C(C)O2)Oc2ccc(cc2Cl)C1O (stereo not shown) [Compound 63, 4-phenoxyphenethyl]
0.5 (≈ 0.28 µM) | – | 0.25 (≈ 0.14 µM) | CNC(CC(C)C)C(=O)NC1C(=O)NC(CC(N)=O)C(=O)NC2C(=O)NC3C(=O)NC(C(=O)NC(C(=O)O)c4cc(O)cc(O)c4-c4cc3ccc4O)C(OC3CC(C)(N)C(O)C(C)O3)c3ccc(c(Cl)c3)Oc3cc2cc(c3OC2OC(CO)C(O)C(O)C2OC2CC(C)(NCc3c4ccccc4cc4ccccc34)C(O)C(C)O2)Oc2ccc(cc2Cl)C1O (stereo not shown) [Compound 13, 9-anthranylmethyl]
0.5 (≈ 0.277 µM) | – | 8 (≈ 4.44 µM) | CNC(CC(C)C)C(=O)NC1C(=O)NC(CC(N)=O)C(=O)NC2C(=O)NC3C(=O)NC(C(=O)NC(C(=O)O)c4cc(O)cc(O)c4-c4cc3ccc4O)C(OC3CC(C)(N)C(O)C(C)O3)c3ccc(c(Cl)c3)Oc3cc2cc(c3OC2OC(CO)C(O)C(O)C2OC2CC(C)(NCCc3cccc(OCc4ccccc4)c3)C(O)C(C)O2)Oc2ccc(cc2Cl)C1O (stereo not shown) [Compound 69, 3-benzyloxyphenethyl]
